Data set [1] is described as follows: Cell viability, sulforhodamine B assay. In kind it is cell-based. The settings on record: human, CCD 841 CoN colon epithelial cells (non-tumoral cell line), 72 h exposure, dilutions 12.5 to 100 μM, non-tumor cell line, read-out: Cytotoxicity IC50, CoN. As to the method: (§1) The cytotoxicity of compounds 1–12 was evaluated in vitro against different cancer cell lines: MCF-7 breast cancer, DU-145 and PC-3 human prostate cancer, and one non-tumor cell line, human colon epithelial cells CCD 841 CoN (CoN). […] Four serial dilutions (from 12.5 to 100 μM) for each sample were evaluated in triplicate.
(§2) The experimental cell cultures were obtained from the American Type Culture Collection (Rockville, MD, USA). MCF-7 cells (breast cancer cell line), PC-3 and DU-145 (prostate cancer cell lines), and human colon epithelial cells CCD 841 CoN (non-tumoral cell line) were grown in Dulbecco’s modified Eagle’s medium (DMEM) containing 10% FCS, 100 U/mL penicillin, 100 μg/mL streptomycin, and 1 mM glutamine. Cells were seeded into 96 well microtiter plates in 100 μL at a plating density of 5 × 10^3 cells/well. After 24 h incubation at 37 °C under a humidified 5% CO2 atmosphere to allow cell attachment, the cells were treated with different concentrations of drugs and incubated for 72 h under the same conditions. Stock solutions of compounds were prepared in ethanol and the final concentration of this solvent was kept constant at 1%. Control cultures received 1% ethanol alone.
(§3) The sulforhodamine B assay was used according to the method of Skehan et al.. Briefly, the cells were set up at 3 × 10^3 cells per well of a 96 200 μL well, flat-bottomed, microplate. Cells were incubated at 37 °C in a humidified 5% CO2/95% air mixture and treated with the compounds at different concentrations for 72 h. At the end of drug exposure, cells were fixed with 50% trichloroacetic acid at 4 °C. After washing with water, cells were stained with 0.1% sulforhodamine B (Sigma-Aldrich, St. Louis, MO, USA), dissolved in 1% acetic acid (50 μL/well) for 30 min, and subsequently washed with 1% acetic acid to remove unbound stain. Protein-bound stain was solubilized with 100 μL of 10 mM unbuffered Tris base, and the cell density was determined using a […] plate reader (wavelength 540 nm). Values shown are the mean ± SD of three independent experiments in triplicate. The software used to calculate the IC50 values was GraphPad (GraphPad Software, San Diego, CA, USA).
On the technique in general: Sulforhodamine B stains cellular protein and so reports cell mass.

In data set [2] the test system is MCF-7 breast cancer cell line. Briefly: Cell viability, sulforhodamine B assay. In kind it is cell-based. The conditions noted are these: Homo sapiens, MCF7, 72 h exposure, dilutions 12.5 to 100 μM, read-out: Cytotoxicity IC50, MCF-7. As to the method: as §1, §2, §3
Data set [3] concerns DU-145 prostate cancer cell line. Briefly: Cell viability, sulforhodamine B assay. The data set is classed as cell-based. The settings on record: Homo sapiens, 72 h exposure, dilutions 12.5 to 100 μM, read-out: Cytotoxicity IC50, DU145. As to the method: as §1, §2, §3
Data set [4] concerns PC-3 prostate cancer cell line. Briefly: Cell viability, sulforhodamine B assay. In kind it is cell-based. The conditions noted are these: Homo sapiens, 72 h exposure, dilutions 12.5 to 100 μM, read-out: Cytotoxicity IC50, PC-3. As to the method:
as §1, §2, §3

The subject of data set [5] is Salmonella strains TA 98, TA 2637, and TA 100. The conditions noted are these: at highest non-toxic concentration; cited from earlier work.
Data set [6] concerns panel of cancer cell lines. Briefly: Cytotoxicity against a panel of cancer cell lines (summary). In kind it is cell-based. The conditions noted are these: Homo sapiens; summary statement of the conclusions. As to the method: as §1, §3
Data set [7] has as its system PC-3 cells. Briefly: Morphological assessment of cell apoptosis, Hoechst 33342 staining. The data set is classed as cell-based, human. The conditions noted are these: PC-3, 24 h exposure, fluorescence microscope. As to the method: (§4) Nuclear changes in PC-3, MCF-7 and CoN cells were observed under a fluorescence microscope (200×, Figure 4).
(§5) Briefly, on 24-well chamber slides, 1 × 10^4 cells/mL were cultured and exposed to compounds for 24 h. The control group was also exposed to 1% ethanol. The cells were washed twice with phosphate buffer solution, fixed with 3.7% formaldehyde, and washed again with phosphate buffer solution. Following the addition of 1 μM Hoechst 33342 (Sigma-Aldrich, Santiago, Chile), they were reacted in a dark room at room temperature for 30 min. After washing, they were examined under an immunofluorescence microscope (IX 81 model inverted microscope, Olympus, Santiago, Chile).

Data set [8] has as its system CoN cells. The description is as above. The conditions noted are these: 24 h exposure, fluorescence microscope. The data set is classed as cell-based, human. On the procedure:
as §4, §5

The subject of data set [9] is MCF-7 cells. The description is as above. In kind it is cell-based, human. The settings on record: MCF-7, 24 h exposure, fluorescence microscope. As to the method: as §4, §5
Data set [10] relates to PC-3 cells. Briefly: Morphological changes, phase contrast microscope. The data set is classed as cell-based, human. The settings on record: PC-3, 50 μM compound for 24 h. On the procedure:
(§6) First, the appearance of morphological changes in the cells treated with 50 μM compound for 24 h was analyzed.

The test system of data set [11] is CoN cells. Briefly: Morphological changes, phase contrast microscope. In kind it is cell-based, human. The conditions noted are these: 50 μM compound for 24 h. As to the method: as §6
The subject of data set [12] is MCF-7 cells. Briefly: Morphological changes, phase contrast microscope. In kind it is cell-based, human. The settings on record: MCF-7, 50 μM compound for 24 h. On the procedure: as §6
In another data set the test system is caspase-3 in PC-3 cells. Briefly: Caspase 3 activity assay (colorimetric, DEVD-pNA). The settings on record: PC-3, compound 50 μM; control 1% ethanol. In kind it is cell-based, human. An excerpt: (§7) Depletion of mitochondrial membrane potential leads to the release of apoptogenic factors, such as cytochrome c in the apoptotic cascade, and activation of caspases. Then we investigated the effects of our compounds on caspase activity. We focused on caspase-3, which is a main executor of apoptosis playing a central role in its biological processing. We analyzed the effect of treatment with the compound 1, 8 and 12 on caspase-3 activation in normal and cancer cells. […] Compound 1 increased the activity of caspase-3 by 3.4 ± 0.1, 1.4 ± 0.1 and 2.8 ± 0.1 times versus control cells in MCF-7 (black), CoN (white) and PC-3 (gray) cells, respectively. Compound 8 increased the activity of caspase 3 by 2.4 ± 0.1, 1.3 ± 0.2 and 2.7 ± 0.1 times versus control cells in MCF-7 (black), CoN (white) and PC-3 (gray) cells, respectively.
(§8) Caspase activity was measured using a colorimetric assay. Briefly, the cells exposed to compounds were collected by centrifugation at 1000 rpm and lysed with lysis buffer (1% Triton X-100, 0.32 M sucrose, 5 mM EDTA, 10 mM Tris–HCl, pH 8.0, 2 mM dithiothreitol, 1 mM PMSF, […] aprotinin, 1 mg/mL leupeptin). Thereafter, the lysates were transferred to wells in a 96-well microplate and were incubated with DEVD-pNA (final concentration 200 μM) specific for caspase-3/7, at 37 °C for 1 h. The intensity of the developed color was read at 405 nm in a microplate reader (SpectraMax, Winooski, VT, USA). The results are expressed as percentages of the control level.

A further data set concerns caspase-3 in CoN cells. Briefly: Caspase 3 activity assay (colorimetric, DEVD-pNA). In kind it is cell-based, human. The settings on record: compound 50 μM, control 1% ethanol.
Excerpt: as §7, §8

The subject of the next data set is caspase-3 in MCF-7 cells. Briefly: Caspase 3 activity assay (colorimetric, DEVD-pNA). In kind it is cell-based, human. The conditions noted are these: MCF-7, compound 50 μM; control 1% ethanol.
Excerpt: as §7, §8

The subject of data set [13] is PC-3 cells. Briefly: Mitochondrial membrane permeability, rhodamine 123 flow cytometry. The data set is classed as cell-based, human. The conditions noted are these: control treated cells assigned 100%. An excerpt:
(§9) Mitochondria play a crucial role in the apoptotic cascade by serving as a convergent center of apoptotic signals originating from both the extrinsic and intrinsic pathways. Changes induced in the mitochondrial membrane potential (MMP) have been reported previously to represent a determinant in the execution of cell death. As polygodial has been described as an inhibitor of mitochondrial ATPase and also as nonionic surfactant. This effect may be determinant in cell death, we has analyzed the effect of compounds 1, 8 and 12 on the mitochondrial membrane potential using flow cytometry with rhodamine 123 stain [24]. […] Similar differences were observed after treatments with compounds 1 and 8 at 100 μM.
(§10) Rhodamine 123, a cationic, voltage-sensitive probe that reversibly accumulates in mitochondria, was used to detect changes in transmembrane mitochondrial membrane potentials. Cells were labelled with 1 μM rhodamine 123 at 37 °C in cell medium for 60 min before terminating the experiment. Cells were detached from the plate, after washing with ice cold PBS, and the samples were analyzed by flow cytometry. Data are expressed in percentage of cells with rhodamine 123 [24].

Data set [14] relates to CoN cells. The data set is described as above. In kind it is cell-based, human. The settings on record: control treated cells assigned 100%.
Excerpt: as §9, §10

Data set [15] relates to MCF-7 cells. The description is as above. In kind it is cell-based, human. The settings on record: control treated cells assigned 100%.
Excerpt: as §9, §10

The source of these data is paper PMC6270921, “Study on the Cytotoxic Activity of Drimane Sesquiterpenes and Nordrimane Compounds against Cancer Cell Lines” (Molecules, 2014).

A word on the IC50: it is the concentration that inhibits the measured activity by half.

Consider `CC1(C)CCC[C@]2(C)[C@H](C=O)C(C=O)=CC[C@@H]12` [Compound 2, isopolygodial], for which the IC50 at 72 h in data set [1] is > 200 µM. Besides, the IC50 in [2], in [3] and in [4] was > 200 µM in each case. In addition, the mutagenic activity entry in [5] is given as “no mutagenic activity”.
As to `CC1(C)CCC[C@]2(C)[C@@H](C3OCCO3)C(C=O)=CC[C@@H]12` [Compound 8], the IC50 at 72 h in data set [1] is > 200 µM. Moreover, the IC50 is 97.1 ± 7.2 µM in [2], 70.6 ± 5.9 µM in [3], 65.4 ± 5.5 µM in data set [4] and < 200 µM in [6]. The “nuclear changes after Hoechst 33342 staining” value is “chromatin condensation and karyopyknosis” with PC-3 cells [7]; “chromatin condensation and karyopyknosis” with CoN cells [8]; “chromatin condensation and karyopyknosis” in the data set with MCF-7 cells [9]. For the same compound, the “morphological changes of cells” value in the data set on PC-3 cells [10], in the data set on CoN cells [11] and in the data set with MCF-7 cells [12] was “severely distorted” throughout. Further, the “increase of caspase-3 activity” value is reported as 2.7 ± 0.1 times versus control cells in the data set with caspase-3 in PC-3 cells, 1.3 ± 0.2 times versus control cells with caspase-3 in CoN cells and 2.4 ± 0.1 times versus control cells with caspase-3 in MCF-7 cells. In addition, the “percentage of rhodamine 123 stained cells” value is 136.2 ± 18.5% in the data set on PC-3 cells [13] (PC-3, compound 50 µM, listed as Comp. 8); 92.8 ± 10.4% in the data set with PC-3 cells [13] (PC-3, compound 100 µM); 96.0% ± 7.6% in the data set on CoN cells [14] (compound 50 µM); 96.0 ± 7.6% with CoN cells [14] (compound 50 µM, listed as Comp. 8); 52.3 ± 8.4 % with CoN cells [14] (compound 100 µM); 93.3% ± 7.1% in the data set with MCF-7 cells [15] (MCF-7, compound 50 µM). For the same compound, the “percentage of rhodamine 123 stained cells” value in the data set with MCF-7 cells [15] (MCF-7, compound 50 µM, listed as Comp. 8) was found to be 93.3 ± 7.1%; in the data set on MCF-7 cells [15] (MCF-7, compound 100 µM), 72.3 ± 6.4 %.
